The text below walks through data of PubChem BioAssay (NCI).

Test systems include EKVX NSCLC; SK-MEL-5 melanoma; COLO 205 colon; OVCAR-4 ovarian; UACC-62 melanoma; IGROV1 ovarian; U251 CNS; BT-549 breast; MCF7 breast; HS 578T breast.
Common to all, as to assay: NCI-60 cell line screen, 48 h

Several values for one entry are separate records, joined by “and”; a condition that tells them apart may be missing. Equal entries are not always repeated.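 Interpolation was linear, between the two tested concentrations surrounding the appropriate level; five concentrations were tested over 48 hours in 96-well plates. GI50 is the concentration that inhibits growth by half. TGI is the concentration that stops growth completely.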 A value given as a limit tells only on which side of the number the result lay.

As to `CCCCCCCCCCCCCCCC(=O)N[C@H]1CCc2cc(OC)c(OC)c(OC)c2-c2ccc(SC)c(=O)cc21`, the GI50 was 4.22 µM in the experiment with EKVX NSCLC; 1.52 µM with SK-MEL-5 melanoma; 8.65 µM in the experiment with OVCAR-4 ovarian; 1.21 µM with UACC-62 melanoma; 2.64 µM with U251 CNS. Further, the TGI with SK-MEL-5 melanoma was 5.73 µM and 4.4 µM; in the experiment with COLO 205 colon, 0.494 µM and 0.391 µM; with OVCAR-4 ovarian, 80 µM and > 100 µM; with UACC-62 melanoma it was 13.4 µM and 11.8 µM; in the experiment on IGROV1 ovarian it was 39 µM and 10.9 µM; in the experiment with U251 CNS, 8.6 µM and 9.32 µM.

Regarding `O=C1CC2Sc3ccccc3N=C2N1c1ccc(Cl)cc1Cl` (stereo not given), the TGI in the experiment on EKVX NSCLC, with SK-MEL-5 melanoma, in the experiment on COLO 205 colon, in the experiment on OVCAR-4 ovarian, with UACC-62 melanoma and in the experiment with IGROV1 ovarian was over 100 µM in each case. This compound registered a TGI with U251 CNS of over 100 µM.

Consider `CN1C(=O)C23CC4=CC=CC(O)C4N2C(=O)C1(CO)SS3` (stereo not given), for which the TGI in the experiment on EKVX NSCLC amounted to 1.33 µM; in the experiment on SK-MEL-5 melanoma, 0.38 µM; in the experiment with COLO 205 colon, 0.292 µM; in the experiment with OVCAR-4 ovarian, 0.524 µM; in the experiment with UACC-62 melanoma, 0.424 µM; with IGROV1 ovarian, 0.297 µM. Moreover, the results for the TGI with BT-549 breast, with U251 CNS and in the experiment on MCF7 breast were 0.742 µM, 0.448 µM and 0.371 µM, respectively.

For `COc1cc(C2c3cc4c(cc3[C@@H](Nc3cccc(O)c3)C3COC(=O)[C@H]23)OCO4)cc(OC)c1O` (stereo not given in full), the TGI in the experiment on EKVX NSCLC was 15 µM; in the experiment with SK-MEL-5 melanoma it was 6.45 µM; in the experiment with COLO 205 colon it was 23.1 µM; in the experiment on OVCAR-4 ovarian it was 37.6 µM; with UACC-62 melanoma it was 7.08 µM; with IGROV1 ovarian, 30.4 µM. Moreover, the TGI is 6.7 µM in the experiment with BT-549 breast, 9.22 µM in the experiment with U251 CNS and 28.4 µM in the experiment on MCF7 breast. Also, the GI50 in the experiment on SK-MEL-5 melanoma was 0.526 µM; in the experiment with UACC-62 melanoma it was 0.603 µM; in the experiment on U251 CNS, 0.732 µM.

For the compound `COc1cc2cc3c4c(cc(OC)c(OC)c4c2cc1OC)CCN3C(=O)OCCBr`, the TGI in the experiment on EKVX NSCLC, with SK-MEL-5 melanoma, in the experiment with COLO 205 colon, in the experiment on UACC-62 melanoma, in the experiment with IGROV1 ovarian and in the experiment on U251 CNS was over 100 µM each time.

As for `CCN1CC2(C)CC[C@@H](OC)C34[C@@H]2[C@H](OC(C)=O)C2(OCO[C@@]25C[C@H](OC)C2C[C@]3(O)[C@@H]5[C@H]2O)[C@H]14`, the TGI in the experiment with EKVX NSCLC, with COLO 205 colon, in the experiment on OVCAR-4 ovarian and in the experiment on U251 CNS was over 100 µM throughout.

On to `Clc1ccccc1C1=NN(c2ccccc2)C2c3cc(Br)ccc3OCC12` (stereo not given), for which the TGI in the experiment with EKVX NSCLC, with COLO 205 colon, with IGROV1 ovarian and in the experiment with U251 CNS was over 100 µM each time.

Consider `CC(C)=C1CCC(CN2CCCC2)C1=O` (stereo not given), for which the TGI in the experiment with EKVX NSCLC is over 100 µM; in the experiment with SK-MEL-5 melanoma it was over 100 µM; in the experiment with OVCAR-4 ovarian, 32.3 µM; in the experiment with UACC-62 melanoma it was over 100 µM; in the experiment with IGROV1 ovarian, over 100 µM.

Take `Cc1cccc(N2C(=O)/C(=C/c3ccc(N(CCC#N)CCC#N)cc3C)N=C2c2cc([N+](=O)[O-])ccc2Cl)c1`: the TGI in the experiment on EKVX NSCLC, with SK-MEL-5 melanoma, with COLO 205 colon, with OVCAR-4 ovarian, with UACC-62 melanoma and in the experiment on IGROV1 ovarian was over 100 µM each time. In the experiment with U251 CNS, this compound registered a TGI of over 100 µM.

Consider `O=C1/C(=C/c2ccccc2)CN(C(=O)Oc2ccc([N+](=O)[O-])cc2)C/C1=C\c1ccccc1`, for which the GI50 in the experiment with SK-MEL-5 melanoma is 4.12 µM; with COLO 205 colon it was 4.95 µM; with OVCAR-4 ovarian, 1.77 µM; in the experiment on UACC-62 melanoma, 3.81 µM; with U251 CNS, 1.56 µM. Also, the TGI in the experiment with SK-MEL-5 melanoma is 5.38 µM; in the experiment with OVCAR-4 ovarian it was 7.87 µM and 4.15 µM; in the experiment with U251 CNS, 4.2 µM and 3.31 µM.

Consider `CC[C@@]1(O)C(=O)OCc2c1cc1n(c2=O)Cc2cc3c(NC(C)=O)c(O)ccc3nc2-1`, for which the GI50 was 81.4 µM with EKVX NSCLC; 2.08 µM with SK-MEL-5 melanoma; 17.6 µM in the experiment on COLO 205 colon; 14.6 µM with OVCAR-4 ovarian; 0.272 µM in the experiment with UACC-62 melanoma; 6.27 µM with IGROV1 ovarian. Moreover, in the experiment on U251 CNS, the GI50 was 0.252 µM. For the same compound, the TGI in the experiment on EKVX NSCLC was over 100 µM; in the experiment with SK-MEL-5 melanoma, 8.97 µM; with COLO 205 colon, over 100 µM; in the experiment with OVCAR-4 ovarian, 44.7 µM; in the experiment with UACC-62 melanoma, 2.71 µM; in the experiment with IGROV1 ovarian it was over 88.5 µM. Besides, the TGI in the experiment with U251 CNS turned out to be 4.46 µM.

With `COc1ccccc1NC(=O)C(=O)C1C(=O)Nc2ccccc2S1=O` (stereo not given), the TGI in the experiment with EKVX NSCLC, in the experiment with SK-MEL-5 melanoma, in the experiment with COLO 205 colon, in the experiment on OVCAR-4 ovarian, in the experiment on UACC-62 melanoma and with IGROV1 ovarian was over 100 µM each time. In addition, the TGI with U251 CNS was over 100 µM.

As for `C/C(=N/Nc1ccc([N+](=O)[O-])cc1[N+](=O)[O-])C(CC(C(=O)Nc1ccccc1C)/C(C)=N\Nc1ccc([N+](=O)[O-])cc1[N+](=O)[O-])C(=O)Nc1ccccc1C` (stereo not given), the TGI was 38 µM in the experiment with EKVX NSCLC; 36.8 µM in the experiment on SK-MEL-5 melanoma; 25.4 µM in the experiment with COLO 205 colon; 15.9 µM with OVCAR-4 ovarian; 69.4 µM with UACC-62 melanoma; 32.1 µM in the experiment on IGROV1 ovarian. Also, the TGI in the experiment on U251 CNS is 14 µM.

In the case of `CCOC(=N)CC(=O)NC(C)c1ccccc1` (stereo not given), the TGI with EKVX NSCLC, in the experiment on SK-MEL-5 melanoma, in the experiment with COLO 205 colon, in the experiment on OVCAR-4 ovarian, in the experiment on UACC-62 melanoma and with IGROV1 ovarian was over 100 µM in each case. Also, the TGI in the experiment with U251 CNS is over 100 µM.

Turning to `C/C(=N\NC(=S)N1CCC(C2CCN(C(=S)N/N=C(\C)c3ccccn3)CC2)CC1)c1ccccn1`, the TGI in the experiment on EKVX NSCLC, in the experiment on SK-MEL-5 melanoma, in the experiment with COLO 205 colon, in the experiment with OVCAR-4 ovarian, in the experiment with UACC-62 melanoma and in the experiment on IGROV1 ovarian was over 100 µM each time. This compound also returned a TGI with U251 CNS of over 100 µM.

As for `Cc1cc(N)c2ccccc2[n+]1CCCCCCCCCC[n+]1c(C)cc(N)c2ccccc21`, the TGI was > 50 µM and 49.4 µM and 26.9 µM in the experiment with EKVX NSCLC; > 19.2 µM and 29.6 µM with HS 578T breast; 1.57 µM and 3.29 µM and 5.32 µM in the experiment on BT-549 breast; 1.05 µM and 1.94 µM and 6.52 µM with U251 CNS. The GI50 is 0.303 µM in the experiment on HS 578T breast; 0.0679 µM and 0.367 µM in the experiment on SK-MEL-5 melanoma; 0.189 µM in the experiment on UACC-62 melanoma; 0.538 µM and 2.17 µM with IGROV1 ovarian; 0.304 µM and 1.5 µM in the experiment with BT-549 breast; 0.145 µM and 1.15 µM in the experiment on U251 CNS.
